From US5925372A, “Mixed solvent mutually enhanced transdermal therapeutic system” (Novartis Corporation, priority 1991, dated 1999)
Like-named read-outs stand apart in the source and are kept apart here.

Columns and labels:
[1] = Charge state in aqueous solutions; assay type: physicochemical
[2] = assay type: in vitro ADME, human; conditions: 0.7 volume fraction of ethanol; active agent at saturation
Excerpt: FIG. 4 is a graph of the flux of (±) trans-1,3,4,4a,5,10b-hexahydro-4-propyl-2H-[1]benzopyrano[3,4-b]pyridin-9-ol monohydrochloride, an ionizable drug which is a dopamine autoreceptor agonist, across human epidermis from ethanol: water (7:3) versus pH of that aqueous ethanol solution. In aqueous solutions, the drug is […] charged below pH 6.5.
This Example is based on FIG. 4 in which the dopamine autoreceptor agonist, (±)trans-1,3,4,4a,5,10b-hexahydro-4-propyl-2H-[1]benzopyrano[3,4-b]pyridin-9-ol, an ionizable drug, permeates skin. For this drug the optimal pH of an ethanol:water donor which is 0.7 volume fraction of ethanol is in the range of 4. A microporous membrane such as a microporous polypropylene and a silicone adhesive may be used. The active agent is present at saturation.

[3] = Method: FIG. 2 is a graph of the steady-state flux of ethanol across human epidermis versus the volume fraction of ethanol in the donor solution.
This Example is based on FIGS. 1-3. […] The reservoir contains 1.7 ml of ethanol, 0.3 ml water, 200 mg of progesterone as the drug, and 2% Klucel as a gelling agent. […] A volume fraction of 0.85 is chosen to allow for the back flux of water and depletion of ethanol during the use of the system.

[4] = Fluxes through ethylene vinyl acetate membranes (Table 1); conditions: for Nitroglycerin flux through ethylene vinyl acetate membrane: ethanol:water (7:3) reservoir saturated with nitroglycerin on lactose; for ^3 H2 O flux through ethylene vinyl acetate membrane: ethanol:water (7:3) reservoir
Method: (§1) For convenience purposes, this is measured by placing a portion of membrane or membrane/adhesive laminate in a diffusion cell and filling one side with a 70%, aqueous ethanol. After a period of time the amounts of water and alkanol that have crossed the membrane are determined. Typically, when measuring ethanol flux, the receiver side is water. When measuring water flux, either a) the donor side is ^3 H2 O and the receiver side is water or b) the donor side is water and the receiver side is air.

[5] = commercial estradiol system, cited from earlier work
[6] = Flux of nitroglycerin and ethanol through epidermis, with and without membrane (FIGS. 5 and 6); conditions: FIG. 6
Excerpt: FIG. 5 is a graph of the flux of nitroglycerin across epidermis versus the volume fraction of ethanol in the aqueous ethanol reservoir.
FIG. 6 is a graph of the flux of nitroglycerin versus the flux of ethanol for two different membrane thicknesses and epidermis as compared to epidermis alone.
These Examples are based on FIGS. 5 and 6. A 0.65 volume fraction of ethanol is used in the reservoir. The systems have a 10 cm^2 surface area, and use a polyester impermeable backing, a polyurethane membrane, and a silicone adhesive. […] Above a volume fraction of 0.8 ethanol, a safety hazard or transportation law infraction may be incurred with nitroglycerin unless the nitroglycerin is kept below 10%.

[7] = Fluxes of nitroglycerin through skin and ethylene vinyl acetate membranes (Table 2); assay type: in vitro ADME
[8] = Fluxes of nitroglycerin and ethanol through 32.8% vinyl acetate membrane plus skin with and without silicone face adhesive (Table 3)
Excerpt: (§2) In current-marketed transdermal devices, the adhesive is typically between 1.5 and 3 mils thick and is on the face of the device.

[9] = Water and ethanol flux through the combined membrane adhesive laminate; conditions: 32.8% vinyl acetate membrane plus 2 mil silicone face adhesive
Method: as §1, §2

[10] = cited from earlier work
[11] = cited from earlier work; remark: listed apart in the source
[12] = cited from earlier work; remark: listed apart in the source
[13] = Steady-state flux of progesterone across the epidermis versus volume fraction of ethanol in donor (FIG. 1); assay type: in vitro ADME
Excerpt: (§3) This Example is based on FIGS. 1-3.

[14] = Flux of progesterone across membrane and adhesive on human epidermis (FIG. 3); assay type: in vitro ADME; conditions: 1 mil polyurethane membrane and silicone adhesive
Excerpt: FIG. 3 is a graph of the flux of progesterone across a membrane and adhesive on human epidermis versus volume fraction of ethanol in the aqueous ethanol reservoir.
as §3

[15] = cited from earlier work; remark: listed apart in the source

CCCN1CCC[C@@H]2c3cc(O)ccc3OC[C@H]21.Cl (racemic) [(±) trans-1,3,4,4a,5,10b-hexahydro-4-propyl-2H-[1]benzopyrano[3,4-b]pyridin-9-ol monohydrochloride]
pH below which the drug is negatively charged in aqueous solutions [1]: < 6.5

CCCN1CCC[C@@H]2c3cc(O)ccc3OC[C@H]21 (racemic) [(±)trans-1,3,4,4a,5,10b-hexahydro-4-propyl-2H-[1]benzopyrano[3,4-b]pyridin-9-ol]
Optimal pH of ethanol:water donor for skin permeation [2]: ~4

CCO [Ethanol, ethanol]
Volume fraction of ethanol at which ethanol flux through skin is optimized [3]: 0.4-0.85 volume fraction of ethanol | Dependence of permeation on vinyl acetate content [4]: increase with vinyl acetate content | Ethanol permeability of rate-limiting membrane ([5]; neat ethanol gel reservoir): ~400 mcg/cm^2 /hr

O=[N+]([O-])OCC(CO[N+](=O)[O-])O[N+](=O)[O-] [Nitroglycerin, nitroglycerin]
Relation of nitroglycerin flux versus ethanol flux through skin and membrane adhesive laminates [6]: The nitroglycerin follows the ethanol through skin | Nitroglycerin flux through ethylene vinyl acetate membrane ([4]; vinyl acetate content 9%): 2.4 ± 0.3 mg/h | Nitroglycerin flux through ethylene vinyl acetate membrane ([4]; vinyl acetate content 18%): 5 ± 0.7 mg/h | Nitroglycerin flux through ethylene vinyl acetate membrane ([4]; vinyl acetate content 28%): 10 ± 0.5 mg/h | Nitroglycerin flux through ethylene vinyl acetate membrane ([4]; vinyl acetate content 40%): 21 ± 0.3 mg/h | Rate control of nitroglycerin permeation ([7]; 1 mil ethylene/vinyl acetate membranes): the skin controls the rate of nitroglycerin permeation | Improvement of nitroglycerin flux through skin over the best of previously disclosed systems ([7]; membranes of higher vinyl acetate content): ≤ 2 factor | Flux of nitroglycerin through skin and ethylene vinyl acetate membrane ([7]; vinyl acetate content 9%): 30 mcg/cm^2 /hr | Flux of nitroglycerin through skin and ethylene vinyl acetate membrane ([7]; vinyl acetate content 18%): 60 mcg/cm^2 /hr | Flux of nitroglycerin through skin and ethylene vinyl acetate membrane ([7]; vinyl acetate content 28%): 66 mcg/cm^2 /hr | Flux of nitroglycerin through skin and ethylene vinyl acetate membrane ([7]; vinyl acetate content 40%): 120 mcg/cm^2 /hr | Improvement of nitroglycerin flux by optimization of adhesive and membrane layers ([8]; 32.8% vinyl acetate membrane, peripheral versus 2 mil silicone face adhesive): more than a factor of two | Nitroglycerin flux ([8]; Membrane alone and skin, 32.8% vinyl acetate membrane, ethanol:water (85:15) reservoir): 82 ± 26 mcg/cm^2 /hr | Nitroglycerin flux ([8]; Membrane and adhesive (2 mil silicone face adhesive) and skin, 32.8% vinyl acetate, ethanol:water (85:15) reservoir): 37 ± 10 mcg/cm^2 /hr | Nitroglycerin flux ([8]; Skin alone from ethanol:water (70:30)): 85 ± 15 mcg/cm^2 /hr | Nitroglycerin flux ([8]; Skin alone without ethanol in donor): 15 ± 7 mcg/cm^2 /hr

[3H]O[3H] [^3 H2 O, tritiated water]
Dependence of permeation on vinyl acetate content ([4]; until reservoir composition of ethanol and water is delivered to skin surface): increase with vinyl acetate content | ^3 H2 O flux through ethylene vinyl acetate membrane ([4]; vinyl acetate content 9%): 0.5 mg/h | ^3 H2 O flux through ethylene vinyl acetate membrane ([4]; vinyl acetate content 18%): 4 ± 0.3 mg/h | ^3 H2 O flux through ethylene vinyl acetate membrane ([4]; vinyl acetate content 28%): 17 ± 3 mg/h | ^3 H2 O flux through ethylene vinyl acetate membrane ([4]; vinyl acetate content 40%): 63 ± 9 mg/h | Tritiated water flux through combined membrane adhesive laminate [9]: smaller than the range disclosed by this invention

C[C@]12CC[C@@H]3c4ccc(O)cc4CC[C@H]3[C@@H]1CC[C@@H]2O [estradiol]
Flux of estradiol through hairless mouse skin, neat versus aqueous ethanol [10]: neat ethanol increases skin permeation better than aqueous ethanol | Skin permeation of estradiol from neat ethanol versus aqueous ethanol donor solutions [11]: skin permeation from neat ethanol is as good or better than from aqueous ethanol donor solutions

C#C[C@]1(O)CC[C@H]2[C@@H]3CCC4=CC(=O)CC[C@@H]4[C@H]3CC[C@@]21CC [levonorgestrel]
Flux of levonorgestrel through rat skin, neat versus aqueous ethanol [12]: neat ethanol increases skin permeation better than aqueous ethanol

CC(=O)[C@H]1CC[C@H]2[C@@H]3CCC4=CC(=O)CC[C@]4(C)[C@H]3CC[C@]12C [progesterone]
Progesterone flux across epidermis from optimized aqueous ethanol reservoir ([13]; compared to both neat water and neat ethanol): large increase in the flux | Volume fraction of ethanol at which progesterone flux through skin is optimized ([13]; not including the drug or gelling agent): 0.4-0.85 volume fraction of ethanol | Volume fraction of ethanol at optimum of skin permeation with membrane and adhesive [14]: ~0.7 volume fraction of ethanol

O=C(O)c1ccccc1O [salicylic acid]
Flux of salicylic acid through human skin, neat versus aqueous ethanol [15]: neat ethanol increases skin permeation better than aqueous ethanol

O [water]
Water permeability of rate-limiting membrane [5]: relatively impermeable to water
